Legend:
[1] = target: T1, endogenous PK in rat plasma (Rattus norvegicus, UniProt P14272); assay: Inhibition of endogenous PK in rat plasma; assay type: biochemical; conditions: read-out: Kiapp
T1 construct: from tissue; host or cells: rat plasma

Factor XIa = Factor XIa (Homo sapiens, UniProt P03951); assay: Inhibitor profile of ASP-440: Factor XIa; assay type: biochemical
[2] = system: recombinant tissue factor; assay: Plasma coagulation time, activation with Innovin reagent; assay type: biochemical; conditions: plasma activated by Innovin reagent; concentrations up to 30 μM
[3] = target: purified human plasma kallikrein (PK) (Homo sapiens, UniProt P03952); assay: Inhibitor profile of ASP-440: plasma kallikrein; assay type: biochemical
[4] = target: Tissue Factor-Factor VIIa (Homo sapiens, UniProt P08709); assay: Inhibitor profile of ASP-440: Tissue Factor-Factor VIIa; assay type: biochemical
Plasmin = Plasmin (Homo sapiens, UniProt P00747); assay: Inhibitor profile of ASP-440: Plasmin; assay type: biochemical
[5] = system: AngII-induced retinal vascular permeability; assay: AngII-induced retinal vascular permeability in rats; assay type: in vivo, rat; conditions: AngII and ASP-440 via 2 Alzet pumps for 7 days; Evan's blue dye method
Experimental: Rats were implanted with a single subcutaneous osmotic pump containing Ang II or two pumps containing AngII and ASP-465, as indicated. RVP was measured using vitreous fluorophotometry after 3 days.
RVP was measured using Evan's blue dye method after 7 days.
We examined the effect of the kallikrein inhibitor ASP-465 on RVP induced by angiotensin II (AngII).

[6] = system: plasma kallikrein-induced hematoma; assay: Hematoma after intracerebral injection of purified activated plasma kallikrein in diabetic rats; assay type: in vivo, rat; conditions: 2 hrs following plasma kallikrein injection, 24 hrs pretreatment via subcutaneous osmotic pump
Source text: The increased response of diabetic rats to the model of intracerebral hemorrhage described above could be due to factors within the blood or due to an increased response in the neurovascular tissue. To evaluate the latter, we performed intracerebral injections of purified activated plasma kallikrein in rats with 1 mo of STZ-induced diabetes or age-matched non-diabetic controls. The contralateral hemisphere was subjected to an equivalent injection with saline vehicle. […]

[7] = system: intrinsic coagulation pathway; assay: Plasma coagulation time, activation with Actin FS reagent; assay type: biochemical; conditions: at 10 μM; plasma activated with Actin FS reagent
astrocytes [8] = assay: Plasma kallikrein binding to astrocytes; assay type: cell-based
Source text: (§1) We have also studied the effects of plasma kallikrein pathway activation on astrocytes. […] Exposure of astrocytes to plasma kallikrein potently stimulated ERK phosphorylation, and this action of kallikrein on astrocytes is not affected by B2-R antagonism (Hoe140). The effect of kallikrein on astrocytes was blocked by leupeptin, a protease inhibitor and C1-INH (data not shown). […] This is in contrast to the bradykinin effect, which is rapid and transient (data not shown). Plasma kallikrein's effect on ERK phosphorylation in astrocytes is dose dependent, reaching a maximal effect at 100 nM kallikrein (data not shown). […] In addition, plasma kallikrein binding to astrocytes was blocked by AS-440 (FIG. 9B) and C1-INH (data not shown).

Factor Xa = Factor Xa (Homo sapiens, UniProt P00742); assay: Inhibitor profile of ASP-440: Factor Xa; assay type: biochemical
Factor XIIa = target: T2, Factor XIIa (Homo sapiens, UniProt P00748); assay: Inhibitor profile of ASP-440: Factor XIIa; assay type: biochemical
T2 sequence (P00748 373-615 limits assumed): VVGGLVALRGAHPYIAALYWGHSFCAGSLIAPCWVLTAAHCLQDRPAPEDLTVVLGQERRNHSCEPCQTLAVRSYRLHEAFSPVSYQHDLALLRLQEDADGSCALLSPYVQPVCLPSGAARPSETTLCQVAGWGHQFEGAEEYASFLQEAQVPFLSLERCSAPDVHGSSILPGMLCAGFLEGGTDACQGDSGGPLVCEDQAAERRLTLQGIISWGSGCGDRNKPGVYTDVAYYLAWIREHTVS

[9] = target: T3, endogenous PK in human plasma (Homo sapiens, UniProt P03952); assay: Inhibition of endogenous PK in human plasma; assay type: biochemical; conditions: read-out: Kiapp
T3 construct: from tissue; host or cells: human plasma

Thrombin = Thrombin (Homo sapiens, UniProt P00734); assay: Inhibitor profile of ASP-440: Thrombin; assay type: biochemical
blood-induced hematoma = assay: Hematoma after intracerebral infusion of autologous blood in diabetic rats; assay type: in vivo, Sprague-Dawley rats; conditions: systemic treatment, 48 h after intracerebral infusion of autologous blood
Experimental: We have compared the response to intracerebral infusion of blood in Sprague-Dawley rats with 1 mo of STZ-induced diabetes with age matched non-diabetic control rats. Fifty μL of autologous whole blood was collected from the tail vein and immediately infused 1 mm anterior, 4 mm lateral and 6 mm in depth to the bregma using a 30 gauge needle at 20 μL per minute. The infusion needle was removed 10 min after injection and the burr hole was sealed with bone wax. Forty-eight hours after intracerebral injection, the animals were perfused with saline and surface hematoma area was examined by measurement of hematoma area relative to total hemisphere area.

[10] = target: Porcine Pancreatic Kallikrein (Sus scrofa, UniProt P00752); assay: Inhibitor profile of ASP-440: Porcine Pancreatic Kallikrein; assay type: biochemical
[11] = system: diabetes-induced retinal vascular permeability; assay: Diabetes-induced retinal vascular permeability in rats; assay type: in vivo, rat; conditions: STZ-induced diabetes, 28 days; subcutaneous osmotic pump; Evan's blue dye method
astrocytes [12] = assay: Plasma kallikrein-induced ERK phosphorylation in astrocytes; assay type: cell-based; conditions: astrocytes exposed to plasma kallikrein
Source text: as §1

[13] = system: ischemia-induced cerebral vascular permeability and infarct; assay: Middle cerebral artery occlusion (MCAO) in rats with 4 weeks of STZ-induced diabetes; assay type: in vivo, rat; conditions: vs diabetic rats receiving vehicle
Experimental: Rats were implanted with a single subcutaneous osmotic pump containing ASP-440, as indicated. Cerebral vascular permeability was measured using Evan's blue dye method 2 hours after occlusion.
Infarct area was measured using Triphenyltetrazolium chloride stain after 24 hours of permanent occlusion.
The effect of diabetes on cerebral vascular permeability induced by ischemia was examined in rats subjected to middle cerebral artery occlusion (MCAO). […] Cerebral vascular permeability following MCAO was increased in the diabetic rats compared with nondiabetic rats (FIG. 14). […] MCAO-induced infarct area is increased in rats with 4 weeks of diabetes compare with nondiabetic rats (FIG. 15).

Factor IXa = Factor IXa (Homo sapiens, UniProt P00740); assay: Inhibitor profile of ASP-440: Factor IXa; assay type: biochemical
Factor IXa, sequence (P00740 227-461 limits assumed): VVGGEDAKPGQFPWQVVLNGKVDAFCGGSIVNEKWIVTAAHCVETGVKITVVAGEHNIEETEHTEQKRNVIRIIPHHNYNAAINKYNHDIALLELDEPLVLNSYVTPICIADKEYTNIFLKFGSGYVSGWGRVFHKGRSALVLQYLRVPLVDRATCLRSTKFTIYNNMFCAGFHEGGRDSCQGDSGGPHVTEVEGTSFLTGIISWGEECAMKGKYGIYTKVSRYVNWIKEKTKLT
Factor IXa, sequence (P00740 47-191 partner limits assumed): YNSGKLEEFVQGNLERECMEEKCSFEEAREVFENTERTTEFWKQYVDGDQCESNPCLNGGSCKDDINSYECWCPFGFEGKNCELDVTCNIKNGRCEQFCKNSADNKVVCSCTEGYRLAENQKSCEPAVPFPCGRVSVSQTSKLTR

Plasmin, sequence (P00747 581-810 limits assumed, species assumed): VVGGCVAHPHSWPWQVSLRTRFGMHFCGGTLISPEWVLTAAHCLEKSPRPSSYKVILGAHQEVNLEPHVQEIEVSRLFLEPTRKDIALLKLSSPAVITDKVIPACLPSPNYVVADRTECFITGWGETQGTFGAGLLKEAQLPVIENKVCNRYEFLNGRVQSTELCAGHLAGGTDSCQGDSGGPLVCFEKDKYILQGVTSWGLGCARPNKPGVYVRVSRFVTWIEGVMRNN
Plasmin, sequence (P00747 97-580 partner limits assumed, species assumed): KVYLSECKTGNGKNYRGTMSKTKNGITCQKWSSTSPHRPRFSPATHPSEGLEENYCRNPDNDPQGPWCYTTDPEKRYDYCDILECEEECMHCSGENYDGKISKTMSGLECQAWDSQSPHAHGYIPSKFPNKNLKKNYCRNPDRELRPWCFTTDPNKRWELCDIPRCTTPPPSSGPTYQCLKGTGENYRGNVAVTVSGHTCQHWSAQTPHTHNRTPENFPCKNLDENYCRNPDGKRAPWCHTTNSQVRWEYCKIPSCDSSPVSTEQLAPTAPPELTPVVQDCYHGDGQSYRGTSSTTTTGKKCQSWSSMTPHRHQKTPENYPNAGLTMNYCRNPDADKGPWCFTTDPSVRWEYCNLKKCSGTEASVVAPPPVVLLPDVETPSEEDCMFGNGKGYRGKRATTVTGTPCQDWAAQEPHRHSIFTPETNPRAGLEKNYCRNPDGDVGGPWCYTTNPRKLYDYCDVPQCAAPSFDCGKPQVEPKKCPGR
purified human plasma kallikrein (PK), sequence (P03952 20-638): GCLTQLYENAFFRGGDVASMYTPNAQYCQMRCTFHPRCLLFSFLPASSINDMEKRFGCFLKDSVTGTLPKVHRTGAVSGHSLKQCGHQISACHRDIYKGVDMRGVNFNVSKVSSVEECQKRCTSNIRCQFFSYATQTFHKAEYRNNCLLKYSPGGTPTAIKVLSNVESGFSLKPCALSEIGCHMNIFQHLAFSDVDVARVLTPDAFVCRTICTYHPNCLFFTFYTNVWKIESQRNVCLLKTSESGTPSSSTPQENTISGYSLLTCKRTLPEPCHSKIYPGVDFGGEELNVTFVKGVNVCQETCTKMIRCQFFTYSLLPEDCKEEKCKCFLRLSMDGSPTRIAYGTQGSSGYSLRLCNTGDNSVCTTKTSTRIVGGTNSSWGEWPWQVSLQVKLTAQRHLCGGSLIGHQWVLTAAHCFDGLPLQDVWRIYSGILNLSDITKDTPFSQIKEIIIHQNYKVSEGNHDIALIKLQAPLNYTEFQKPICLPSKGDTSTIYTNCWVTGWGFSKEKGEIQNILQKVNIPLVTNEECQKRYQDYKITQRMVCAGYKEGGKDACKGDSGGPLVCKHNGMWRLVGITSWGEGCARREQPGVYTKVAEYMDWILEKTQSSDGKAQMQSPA
Factor Xa, sequence (P00742 235-488 limits assumed): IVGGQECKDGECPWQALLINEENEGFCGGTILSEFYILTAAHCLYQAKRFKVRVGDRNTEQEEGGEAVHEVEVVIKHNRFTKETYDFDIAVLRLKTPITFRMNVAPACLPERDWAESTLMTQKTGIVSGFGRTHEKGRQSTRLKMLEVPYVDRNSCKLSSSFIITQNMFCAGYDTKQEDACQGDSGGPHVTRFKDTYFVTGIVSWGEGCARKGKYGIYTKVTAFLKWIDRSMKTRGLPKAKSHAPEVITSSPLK
Factor Xa, sequence (P00742 41-179 partner limits assumed): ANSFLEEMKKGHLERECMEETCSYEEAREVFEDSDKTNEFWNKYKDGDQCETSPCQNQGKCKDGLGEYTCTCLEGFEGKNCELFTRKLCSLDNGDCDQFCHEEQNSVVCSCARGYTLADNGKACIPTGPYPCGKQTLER
Tissue Factor-Factor VIIa, sequence (P08709 213-466 limits assumed): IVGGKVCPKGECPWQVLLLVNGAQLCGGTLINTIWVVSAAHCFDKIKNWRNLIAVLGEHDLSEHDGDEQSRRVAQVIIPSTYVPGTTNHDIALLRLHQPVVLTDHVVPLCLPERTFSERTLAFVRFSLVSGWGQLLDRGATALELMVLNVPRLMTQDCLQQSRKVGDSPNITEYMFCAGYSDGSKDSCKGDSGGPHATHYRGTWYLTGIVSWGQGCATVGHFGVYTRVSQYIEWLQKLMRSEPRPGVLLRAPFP
Tissue Factor-Factor VIIa, sequence (P08709 61-212 partner limits assumed): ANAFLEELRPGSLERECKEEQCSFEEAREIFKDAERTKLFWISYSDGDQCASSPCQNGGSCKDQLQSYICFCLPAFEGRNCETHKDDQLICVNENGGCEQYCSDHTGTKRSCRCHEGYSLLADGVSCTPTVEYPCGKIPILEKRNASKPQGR
Tissue Factor-Factor VIIa, sequence (P13726 33-295 partner): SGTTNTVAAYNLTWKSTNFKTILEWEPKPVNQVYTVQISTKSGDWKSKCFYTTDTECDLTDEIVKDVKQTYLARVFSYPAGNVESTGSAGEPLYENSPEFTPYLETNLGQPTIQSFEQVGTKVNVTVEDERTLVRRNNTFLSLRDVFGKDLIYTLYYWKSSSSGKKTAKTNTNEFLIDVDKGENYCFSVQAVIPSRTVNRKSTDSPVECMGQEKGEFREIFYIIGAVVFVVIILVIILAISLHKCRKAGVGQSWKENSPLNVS
Porcine Pancreatic Kallikrein, sequence (P00752 8-246): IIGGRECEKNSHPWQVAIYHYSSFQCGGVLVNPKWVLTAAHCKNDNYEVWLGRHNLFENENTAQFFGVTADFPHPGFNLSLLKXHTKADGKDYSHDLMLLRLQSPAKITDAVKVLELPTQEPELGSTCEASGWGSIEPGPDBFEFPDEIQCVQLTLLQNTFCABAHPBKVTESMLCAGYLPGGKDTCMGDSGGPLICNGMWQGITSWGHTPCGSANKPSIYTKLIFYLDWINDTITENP
Factor XIa, sequence (P03951 388-625 limits assumed): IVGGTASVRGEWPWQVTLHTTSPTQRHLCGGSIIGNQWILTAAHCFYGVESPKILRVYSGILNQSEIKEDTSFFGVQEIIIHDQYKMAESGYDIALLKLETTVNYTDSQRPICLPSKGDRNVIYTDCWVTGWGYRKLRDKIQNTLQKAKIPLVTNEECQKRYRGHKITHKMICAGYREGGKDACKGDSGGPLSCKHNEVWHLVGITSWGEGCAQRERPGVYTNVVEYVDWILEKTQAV
Factor XIa, sequence (P03951 19-387 partner limits assumed): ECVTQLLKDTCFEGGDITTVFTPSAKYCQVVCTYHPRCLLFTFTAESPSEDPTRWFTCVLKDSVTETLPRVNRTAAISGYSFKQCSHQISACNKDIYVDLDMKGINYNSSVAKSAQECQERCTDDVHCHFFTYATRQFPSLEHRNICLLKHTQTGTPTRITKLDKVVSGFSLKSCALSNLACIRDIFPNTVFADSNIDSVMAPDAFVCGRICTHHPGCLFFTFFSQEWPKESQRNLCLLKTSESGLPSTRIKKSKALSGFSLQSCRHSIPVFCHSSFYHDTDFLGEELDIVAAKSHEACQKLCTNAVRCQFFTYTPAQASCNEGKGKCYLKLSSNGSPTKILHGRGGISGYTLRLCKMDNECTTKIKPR
T3 sequence (P03952 20-638): as the sequence (P03952 20-638) above
T1 sequence (P14272 20-638): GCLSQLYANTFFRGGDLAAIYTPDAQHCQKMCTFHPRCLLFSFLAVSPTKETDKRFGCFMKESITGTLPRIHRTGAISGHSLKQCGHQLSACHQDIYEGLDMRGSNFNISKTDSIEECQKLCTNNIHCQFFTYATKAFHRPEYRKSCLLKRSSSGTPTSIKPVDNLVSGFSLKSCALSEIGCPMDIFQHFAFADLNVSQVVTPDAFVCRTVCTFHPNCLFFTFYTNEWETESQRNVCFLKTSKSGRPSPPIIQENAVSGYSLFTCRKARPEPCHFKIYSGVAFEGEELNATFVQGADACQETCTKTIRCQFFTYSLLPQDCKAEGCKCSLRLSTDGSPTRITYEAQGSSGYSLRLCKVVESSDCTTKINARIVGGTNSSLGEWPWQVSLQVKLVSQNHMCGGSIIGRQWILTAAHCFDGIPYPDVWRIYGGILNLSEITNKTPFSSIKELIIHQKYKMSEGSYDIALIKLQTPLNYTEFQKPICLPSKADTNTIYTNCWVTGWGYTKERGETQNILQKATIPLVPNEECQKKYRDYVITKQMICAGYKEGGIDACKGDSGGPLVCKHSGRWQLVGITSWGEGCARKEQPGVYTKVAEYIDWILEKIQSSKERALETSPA

## N=C(N)c1ccc(CNC(=O)c2cnn(Cc3ccccc3)c2)cc1 [ASP-440, 1-Benzyl-1H-pyrazole-4-carboxylic acid 4-carbamimidoyl-benzylamide]
[1]
  Ki: 0.4 µM
Factor XIa; Factor XIa
  Ki: 120 µM
Factor XIa; predicted inhibition at 1 μM
  inhibition at 1 µM: 0%
Factor XIa; predicted inhibition at 10 μM
  inhibition at 10 µM: 7%
[2]
  effect on coagulation time: without measurable effect
[3]; PlasmaKallikrein
  Ki: 0.1 µM
[3]; predicted inhibition at 1 μM
  inhibition at 1 µM: 91%
[3]; predicted inhibition at 10 μM
  inhibition at 10 µM: 99%
[3]; purified human plasma kallikrein
  mode of inhibition: competitive and reversible
[4]; Tissue Factor-Factor VIIa
  Ki: 160 µM
[4]; predicted inhibition at 1 μM
  inhibition at 1 µM: 0%
[4]; predicted inhibition at 10 μM
  inhibition at 10 µM: 6%
Plasmin; Plasmin
  Ki: 16 µM
Plasmin; predicted inhibition at 1 μM
  inhibition at 1 µM: 6%
Plasmin; predicted inhibition at 10 μM
  inhibition at 10 µM: 38%
[5]
  RVP: normal levels of RVP
[6]
  hematoma response: decreased
[7]
  prolongation of coagulation time in plasma: ~50%
Astrocytes [8]
  plasma kallikrein binding to astrocytes: blocked
Factor Xa; Factor Xa
  Ki: 85 µM
Factor Xa; predicted inhibition at 1 μM
  inhibition at 1 µM: 0%
Factor Xa; predicted inhibition at 10 μM
  inhibition at 10 µM: 11%
Factor XIIa; Factor XIIa
  Ki: > 100 µM
Factor XIIa; predicted inhibition at 1 μM
  inhibition at 1 µM: 0%
Factor XIIa; predicted inhibition at 10 μM
  inhibition at 10 µM: 1%
[9]
  Ki: 0.2 µM
Thrombin; Thrombin
  Ki: 110 µM
Thrombin; predicted inhibition at 1 μM
  inhibition at 1 µM: 1%
Thrombin; predicted inhibition at 10 μM
  inhibition at 10 µM: 9%
blood-induced hematoma
  hematoma area: reduced hematoma area in diabetic rats to a level comparable to that observed in non-diabetic controls
[10]; Porcine Pancreatic Kallikrein
  Ki: > 100 µM
[10]; predicted inhibition at 1 μM
  inhibition at 1 µM: 0%
[10]; predicted inhibition at 10 μM
  inhibition at 10 µM: 0%
[11]
  RVP: normal levels of RVP
Astrocytes [12]
  effect of kallikrein on ERK phosphorylation: blocked
[13]; 3 days pretreatment via subcutaneous osmotic pump, MCAO for 2 hrs
  reduction of cerebral vascular permeability: about 50%
[13]; treatment 3 days prior to MCAO, 24 hours of permanent occlusion
  decrease of infarct area: about 40%
Factor IXa; Factor IXa
  Ki: > 100 µM
Factor IXa; predicted inhibition at 1 μM
  inhibition at 1 µM: 0%
Factor IXa; predicted inhibition at 10 μM
  inhibition at 10 µM: 0%
